Test results reported in US8507460B2, “Substituted 3′,5′-cyclic phosphates of purine nucleotide compounds and pharmaceutical compositions for the treatment of viral infections” (priority 2011, dated 2013).

How the values were obtained:
[1] = Stability in simulated gastric and intestinal fluids; format: in vitro ADME; details: 100 μM, 2 hours at 37° C., percent of peak area at time zero
Experimental: Simulated gastric and intestinal fluids containing pepsin and pancreatin respectively were prepared according to the U.S. Pharmacopoeia USP291 procedure (www.pharmacopeia.cn/v29240/usp29nf24s0_ris1s126.html). Test compound (final concentration 100 μM) was incubated in duplicate in the appropriate fluid for 2 hours at 37° C. The samples were quenched with 200 μl cold acetonitrile, vortexed for 30 seconds and then centrifuged at 16,100 g for 10 min. The supernatants were analyzed by HPLC on a C-18 column with UV detection at 252 nm. The time 0 samples were prepared by adding SGF or SIF fluid to the quenching solvent followed by the test compound. Stability of the compound was determined by peak area the test compound after incubation and calculated as percent of the peak area observed at time zero.

Stability in mouse blood = format: in vitro ADME; details: mouse whole blood, on ice, percent unchanged
Experimental: (§1) Stability of test compounds were determined in fresh human whole blood with K2EDTA as the anticoagulant (stored refrigerated at 2-8° C. and used within 7 days of receipt). The experiment was conducted with three replicates for each time point. Whole blood, pre-incubated at 37° C. for 10-15 minutes, was fortified with a solution of test compound for a final concentration of 0.5 μM and mixed for 30 sec. At intervals (0, 0.5, 1 and 2 hr), three […] aliquots were combined with 200 μL (each) of an ice-cold solution of the internal standard (carbutamide 500 ng/mL in acetonitrile). The samples were vortexed for 30 sec and then centrifuged at 16,100 g for 5 min. The supernatant was analyzed by LC-MS/MS. The MS peak area ratio of the test compound versus the internal standard was calculated and percent unchanged test compound was calculated for each time point using this ratio.
The stability in mouse blood was determined on ice at 0, 0.5 and 1 hr as above.

Zluc cells = test: Cytotoxicity evaluation, CellTiter-Blue Cell Viability Assay; format: cell-based; details: read-out: HCV Replicon CC50
Experimental: For cytotoxicity evaluation, Zluc cells were treated with compound as described above, and cell viability was monitored using the CellTiter-Blue Cell Viability Assay (Promega) by adding 20 μL of the assay solution to each well. The plates were then incubated at 37° C./5% CO2 for at least 3 hours.

[2] = Stability in fresh human whole blood; format: in vitro ADME; details: 0.5 μM, percent unchanged
Experimental: as §1

[3] = Stability in liver and intestinal subcellular fractions (microsomes and S9); format: in vitro ADME, human; details: 10 μM, NADPH, 60 min, percent unchanged
Experimental: Stability of test compounds were determined in subcellular fractions (microsomes and S9) of human liver and intestine in duplicate for each matrix. Pooled liver and intestinal microsomal, intestinal and liver S9 proteins (1.0 mg/mL), suspended in incubation buffer (100 mM potassium phosphate, pH […], and 0.1 mM EDTA), were preincubated for 5 min at 37° C. with 10 μM of a test compound from a 10 mM stock solution in DMSO (final DMSO concentration was 0.1%); the reaction was initiated by the addition of NADPH (3 mM final concentration). At specific times (0 and 60 min), 0.1 mL samples were taken and the reaction terminated by the addition of 4 volumes of stop solution (acetonitrile with 500 ng/mL carbutamide as an internal standard). The samples were vortexed for 30 sec and then centrifuged at 16,000 g for 10 min. 100 μL of supernatants were transferred to 96 deep-well plates preloaded with 100 μL distilled water and analyzed after mixing by LC-MS/MS. The MS peak area ratio of the test compound versus the internal standard was calculated and percent unchanged test compound over 60 minutes was calculated using this ratio.

fresh human hepatocytes = test: Release of active metabolite in fresh human hepatocytes; format: in vitro ADME; details: 10 μM
Experimental: Plates of fresh human and mouse hepatocytes were obtained on ice. The medium was removed and replaced with hepatocyte culture medium (William's E supplemented with penicillin-streptomycin, 1% L-glutamine, 1% insulin-transferrin-selenium and 0.1 μM Dexamethasone (Invitrogen) or with Invitro GRO HI medium complemented with Torpedo antibiotics (Celsis)). Cells were left overnight in an incubator at 37° C. to acclimatize to culture and the medium.
Hepatocyte incubations were conducted at a final volume of 0.5 mL hepatocyte culture medium/well (0.8 million cells/well for human and 0.5 million cells/well for mouse; 12 well plate no overlay, collagen coat). Culture medium from overnight incubation of cells was removed and replaced with fresh medium, pre-warmed to 37° C., containing 10 μM of test compound from a stock solution in DMSO (final DMSO concentration was 0.1%). At each specific time point, incubation medium was removed and cell monolayers were carefully washed two times with ice-cold PBS. Following the last wash, all PBS was carefully removed and 1.0 mL of extraction solution (ice-cold 70% methanol/30% water) added. Cells were scraped off and suspended in the extraction solution, transferred to 2 mL polypropylene microfuge tubes and intracellular contents extracted overnight at −20° C.
After the overnight treatment the cellular extracts were prepared by centrifugation at 16,000×g for 10 min to remove cellular debris. The remaining sample was then dried using a refrigerated centrivap concentrator. Dry extracts were reconstituted in 1000 μL of HPLC-grade water and centrifuged at 16,000×g for 10 min. Aliquots (100 μL each) of the supernatant were transferred into a 96 well plate and internal standard (4 ng/mL final concentration) was added as the internal standard (IS) for LC-MS/MS analysis.
The incubation time points were 6, 24 and 48 hours for human hepatocytes and 1, 4, 8, 12 and 24 hours for mouse hepatocytes.

HCV genotype 1b replicon = test: HCV Replicon Assay (Zluc luciferase reporter); format: cell-based
Experimental: Huh-7-derived cell line (Zluc) that harbors an HCV genotype 1b replicon and a luciferase reporter gene was grown in Dulbecco's Modified Eagle Medium (DMEM) supplemented with 10% fetal bovine serum, 2 mM GlutaMAX, 1% MEM nonessential amino acids, 100 IU/mL penicillin, 100 μg/mL streptomycin, and 0.5 mg/mL Geneticin® (G418). For dose response testing the cells were seeded in 96-well plates at 7.5×10^3 cells per well in a volume of […], and incubated at 37° C./5% CO2. Drug solutions were made up freshly in Huh-7 media as 2× stocks. […] 5-fold dilutions were prepared from these stocks in DMEM without G418. At least three hours after Zluc cells were seeded, drug treatment was initiated by adding 50 μL of drug dilutions to the plates in duplicate. Final concentrations of drug ranged from 100 μM to 0.0000512 μM. Cells were then incubated at 37° C./5% CO2. Alternatively, compounds were tested at two concentrations (1 μM and 10 μM). […] After 72 hours of incubation, the inhibition of HCV replication was measured by quantification of photons emitted after mono-oxygenation of 5′-fluoroluciferin to oxyfluoroluciferin by firefly luciferase. For this, media was removed from the plates via gentle tapping. Fifty microliters of ONE-glo luciferase assay reagent was added to each well. The plates were shaken gently for 3 min at room temperature and luminescence was measured on a Victor^3 V 1420 multilabel counter (Perkin Elmer) with a 1 second read time using a 700 nm cut-off filter. The EC50 values were calculated from dose response curves from the resulting best-fit equations determined by Microsoft Excel and XLfit 4.1 software. When screening at two fixed concentrations, the results were expressed as % inhibition at 1 μM and 10 μM.

[4] = Stability in rat whole blood; format: in vitro ADME

CCOc1nc(N)nc2c1ncn2[C@@H]1O[C@@H]2COP(=O)(OC(C)C)O[C@H]2[C@@]1(C)O (single isomer, unassigned) [Compound 1b]
Stability SGF ([1]; simulated gastric fluid with pepsin): 99%
Stability SIF ([1]; simulated intestinal fluid with pancreatin): 101%
Stability WB_Mouse (ice; 1 hr) (Stability in mouse blood): 96%
CC50 (Zluc cells): > 50 µM
Stability WB_Human (37° C.; 2 hr) [2]: 103%
Stability HIS9 (1 hr) ([3]; HIS9 1.0 mg/mL): 104%
Stability HIM (1 hr) ([3]; human intestinal microsome 1.0 mg/mL): 102%
Stability HLS9 (1 hr) ([3]; human liver S9 fraction 1.0 mg/mL): 112%
Stability HLM (1 hr) ([3]; human liver microsome 1.0 mg/mL): 96%
FHH TP (6 hr) (fresh human hepatocytes; 6 hr): BLD^a
FHH TP (24 hr) (fresh human hepatocytes; 24 hr): BLD^a
selectivity index (HCV genotype 1b replicon; HCV replicon assay, Zluc cells): greater than 80
EC50 (HCV genotype 1b replicon; Zluc cells (Huh-7-derived, HCV genotype 1b replicon, luciferase reporter), 72 hours): 1 to 10 µM
Stability WB_Rat (ice; 1 hr) [4]: 96%
